Records with an inconclusive call do not appear. The source made the active and inactive calls. How the calls were made is not given here.

These results are taken from PubChem BioAssay AID588764 (Broad Institute, 2011).

Histone acetyltransferase RTT109 (Candida albicans (strain SC5314 / ATCC MYA-2876)), sequence (Q5AAJ8 whole entry, looked up): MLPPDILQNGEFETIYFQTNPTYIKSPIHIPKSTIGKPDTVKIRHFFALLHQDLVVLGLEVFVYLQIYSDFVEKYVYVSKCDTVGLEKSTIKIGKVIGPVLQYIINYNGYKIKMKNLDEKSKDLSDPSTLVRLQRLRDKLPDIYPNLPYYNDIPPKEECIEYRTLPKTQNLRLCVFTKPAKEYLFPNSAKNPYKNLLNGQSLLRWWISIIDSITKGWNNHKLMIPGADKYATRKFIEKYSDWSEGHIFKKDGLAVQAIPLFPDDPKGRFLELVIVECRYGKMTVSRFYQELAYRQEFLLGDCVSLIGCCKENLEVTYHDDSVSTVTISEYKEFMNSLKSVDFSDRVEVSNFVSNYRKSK

One test has as its target Histone acetyltransferase RTT109 (Candida albicans (strain SC5314 / ATCC MYA-2876)) (UniProt Q5AAJ8). Nature of the test: Rtt109/Vps75 acetyltransferase inhibitor potency, dose response, biochemical, cherry-picked hits, plate reader (AID 588764). The note with it: Rtt109/Vps75 HAT activity.
With `CCOc1ccc(N2C(=O)C(Cl)=C(N3CCOCC3)C2=O)cc1`, the AC50 is 20.3 µM.
Still for that read-out and setting: the result for `N#Cc1c(Nc2ccccc2Cl)s[nH]c1=O` reads 4.21 µM; that for `Cc1cccc(N2C(S)=C(C#N)C(=O)NC2c2cccs2)c1` (stereo unspecified), 11.7 µM; that for `CCN1CCN(C(c2cccnc2)c2cc(Cl)c3cccnc3c2O)CC1` (stereo unspecified), 13.9 µM.
The same measure, in the same setting: the result for `O=C(O)C1CCc2sc3[nH]c(=S)n(-c4ccccc4)c(=O)c3c21` (stereo unspecified) reads 9.94 µM.
Still for that read-out and setting: the result for `CC(C)(C)c1cc(C(c2cccnc2)N2CCN(CCO)CC2)cc(C(C)(C)C)c1O` (stereo unspecified) reads 9.87 µM.
Take `O=C(NCc1ccccc1)c1nc(S(=O)(=O)Cc2ccccc2)ncc1Cl`: the AC50 was 15 µM.
With `CCOC(=O)N1CCN(Cc2c(O)ccc3ccccc23)CC1`, the half-maximal activity concentration (AC50) was 18.8 µM.
Same read-out and setting: the result for `CCCNC(=O)Cn1sc2nc(C)cc(C)c2c1=O` reads 2.32 µM.
The same measure, in the same setting: in the case of `Nc1nc2ccc(S(=O)(=O)N3CCCCC3)cc2s1` it was 19.5 µM; in that of `CCc1ccc(C(=O)CSc2ncn[nH]2)cc1`, 4.11 µM.
Regarding `O=[N+]([O-])c1ccc(Sc2cccc[n+]2[O-])c2nonc12`, the AC50 was 11.6 µM.
Still for that read-out and setting: the result for `CCCCS(=O)(=O)/C=C\C=C/S(=O)(=O)CCCC` reads 7.19 µM; that for `O=c1c2ccccc2[se]n1-c1ccccc1`, 1.55 µM.
The same measure, in the same setting: the result for `CSS(=O)(=O)c1cccc2cccnc12` reads 7.95 µM.

The test is the same for the next values; noted with them: Rtt109/Vps75 HAT activity, at 19.5 µM (top of the series).
In the case of `COCCNC(=O)C1=C(N)C(C(=O)Nc2ccc(C)c(S(=O)(=O)N3CCCCC3)c2)SC1=Nc1ccc(C)cc1C` (stereo unspecified), the “activity change, negative = inhibition” value is “inactive”.
On the same count and under the same terms, in the case of `CCOc1ccccc1N1CCN(C(=O)c2ccncc2)CC1` it was “inactive”; in that of `CCOC(=O)c1ccc(N=C2C(=S)N(c3ccc(C(=O)OCC)cc3)C(=N)N2/N=C/c2ccccc2)cc1`, “inactive”.
The same measure, in the same setting: the result for `Cc1ccc(NC(=O)OCc2cc(-c3ccccc3)on2)cc1` reads “inactive”.
Same read-out and setting: in the case of `O=C(CSc1nnc2ccccn12)NNC(=O)c1cccc(Cl)c1` it was “inactive”; in that of `CC1(C)OC(=O)N(c2ccccc2)C12C=Cc1cc(Br)ccc1O2` (stereo unspecified), “inactive”; in that of `Cc1ccc(/C=C2\SC(=S)N(C(Cc3ccccc3)C(=O)O)C2=O)cc1` (stereo unspecified), “inactive”.
`O=C(NCc1ccc(Cl)cc1)c1ccccc1CCc1ccccc1`: the “activity change, negative = inhibition” value was “inactive”.
With `CCN(CC)S(=O)(=O)c1ccc(C(=O)Nc2cc(S(=O)(=O)N3CCOCC3)ccc2N2CCN(C)CC2)cc1`, the “activity change, negative = inhibition” value was “inactive”.
Same read-out and setting: in the case of `CCN1/C(=C/c2ccc3cc(C)ccc3[n+]2CC)Sc2cc(C)ccc21` it was “inactive”; in that of `CCOc1ccc(N2C(=O)CSC2c2ccncc2)cc1` (stereo unspecified), “inactive”.
On to `CC(=O)N1CCN(c2ncnc3ccccc23)CC1`, for which the “activity change, negative = inhibition” value is “inactive”.
The same measure, in the same setting: in the case of `Cc1ccc(S(=O)(=O)N/N=C\C=C\c2ccccc2)cc1` it was “inactive”; in that of `C[C@H]1CC[C@H]2NCCN[C@H]2C1`, “inactive”.
On the same count and under the same terms, the result for `CN(CC(=O)Nc1ccc(F)cc1)C(=O)COc1ccccc1Cc1ccccc1` reads “inactive”; that for `O=C(CSc1n[nH]c(-c2ccccc2Cl)n1)NC1CCCCC1`, “inactive”; that for `CC1CCCC(NS(=O)(=O)c2cccc3nsnc23)C1C` (stereo unspecified), “inactive”.
Still for that read-out and setting: the result for `NCC12CC3CC(C1)CC(c1ccc(Cl)cc1)(C3)C2` reads “inactive”; that for `CN(CC(=O)Nc1ccc(Cl)cc1)C(=O)c1cccc(S(=O)(=O)NCc2ccccc2)c1`, “inactive”; that for `O=S(=O)(Nc1ccc(O)c(Sc2nc3ccccc3s2)c1)c1cccc2ccccc12`, “inactive”.
Take `Clc1nc(NCc2cccnc2)nc(N2CCOCC2)n1`: the “activity change, negative = inhibition” value was “inactive”.
The same measure, in the same setting: in the case of `Fc1ccc(NC(=S)Nc2ccc(Br)cc2)cc1` it was “inactive”.
As for `Nc1ccc(Nc2ccncc2[N+](=O)[O-])cc1`, the “activity change, negative = inhibition” value was “inactive”.
Still for that read-out and setting: in the case of `CC1Cc2cc(S(=O)(=O)N3CCC(C(=O)N(C)Cc4ccco4)CC3)ccc2N1C(=O)C1CCC1` (stereo unspecified) it was “inactive”.
Still for that read-out and setting: in the case of `CCCCCCCCCCCCn1ccc(=N)cc1` it was “inactive”; in that of `CC1Cc2ccccc2N1C(=O)c1ccc(N2CCCC2)c([N+](=O)[O-])c1` (stereo unspecified), “inactive”; in that of `COc1ccc(OC)c(/C=C2\SC(=S)N(C(C(=O)O)c3ccccc3)C2=O)c1` (stereo unspecified), “inactive”.
Same read-out and setting: the result for `Cc1cccn2cc(CCNS(=O)(=O)c3cccs3)nc12` reads “inactive”; that for `COCCN1Cc2cccc(C(=O)Nc3ccc(-c4nc5ccccc5[nH]4)cc3)c2C1=O`, “inactive”; that for `Cc1ccc(C(=O)NCCNC(=O)COc2ccccc2Cl)cn1`, “inactive”.
In the case of `Cc1c(C(=O)N2CCC[C@H]2CO)oc2c(F)cccc12`, the “activity change, negative = inhibition” value is “inactive”.
The same measure, in the same setting: the result for `O=C(CCn1c(=O)c2ccccc2n(Cc2cccc([N+](=O)[O-])c2)c1=O)N1CCc2ccccc2C1` reads “inactive”; that for `O=S(=O)(c1ccc(Cl)cc1)N1CCN(c2ncccn2)CC1`, “inactive”.
The same measure, in the same setting: the result for `Cc1c(C(=O)Nc2ccc(S(=O)(=O)N(C)C3CCN(C)CC3)cc2)oc2c(Cl)cccc12` reads “inactive”.
The same measure, in the same setting: in the case of `COC(=O)c1c(NC(=O)C2CC(C)=C(C)CC2C(=O)O)sc2c1CCCCC2` (stereo unspecified) it was “inactive”; in that of `O=C(OCc1ccc(Br)cc1)c1ccncc1`, “inactive”.
As for `COc1cc(-c2nnc(SCC(=O)OC3CCCCC3)o2)cc(OC)c1OC`, the “activity change, negative = inhibition” value was “inactive”.
Same read-out and setting: the result for `COc1ccc(C(=O)NNC(=O)c2ccncc2)cc1` reads “inactive”; that for `COC(=O)c1ccc(N2C(=O)CC(SCC(=O)Nc3ccc(OC)cc3)C2=O)cc1` (stereo unspecified), “inactive”.
For the compound `CCCCNS(=O)(=O)c1ccc(NC(=O)Cc2ccccc2[N+](=O)[O-])cc1`, the “activity change, negative = inhibition” value was “inactive”.
On the same count and under the same terms, in the case of `Cc1cccc(NC(=O)CCN2C(=O)c3ccccc3C2=O)c1` it was “inactive”; in that of `Cc1nc(CC(C)C)cc(C(=O)N2CCCC(CNS(=O)(=O)c3cccs3)C2)n1` (stereo unspecified), “inactive”.
Same read-out and setting: the result for `O=C(Nc1nc(-c2nc3ccccc3s2)cs1)c1ccc(S(=O)(=O)N2CCOCC2)cc1` reads “inactive”; that for `COc1cccc2c1Oc1ncccc1N(C(=O)CCC(=O)NCc1ccc(F)cc1)C2`, “inactive”; that for `CC(C)C(C(=O)Nc1cccnc1)N1C(=O)c2ccccc2C1=O` (stereo unspecified), “inactive”.
Still for that read-out and setting: the result for `O=C(CNC(=O)c1cccc(Br)c1)N/N=C/c1cccs1` reads “inactive”; that for `CCCCCCCCCCn1c2c(c(=N)c3c1CCC3)CCC2`, “inactive”; that for `CCc1ccccc1NC(=O)C1CCN(C(=O)c2ccc([N+](=O)[O-])cc2)CC1`, “inactive”.
As for `CCOC(=O)c1c(C)n(-c2ccc(C)cc2)c2ccc(OCC(O)CNCC3CCCO3)cc12` (stereo unspecified), the “activity change, negative = inhibition” value was “inactive”.
Still for that read-out and setting: in the case of `Oc1ccccc1CNc1cnc2ccccc2c1` it was “inactive”; in that of `O=S(=O)(Nc1ccc(-c2nnc(SCc3ccc(Cl)cc3)o2)cc1)c1ccccc1`, “inactive”.
Same read-out and setting: the result for `O=C(NCCCN1CCCC1=O)c1ccc(OC(F)(F)F)cc1` reads “inactive”; that for `Cc1cc(C(=O)Nc2ccncc2)c(C)o1`, “inactive”.
The same measure, in the same setting: in the case of `COc1ccc(C2CC(=O)C(C=NCCO)=C(O)C2)cc1` (stereo unspecified) it was “inactive”; in that of `Cc1cc(CN2C(=O)c3ccccc3C2=O)no1`, “inactive”; in that of `O=C(COC(=O)Cc1ccccc1[N+](=O)[O-])Nc1nnc(-c2ccccc2)o1`, “inactive”.
As for `CC#CCN(CC#CC)S(=O)(=O)c1ccc(-n2cnnn2)c(OC)c1`, the “activity change, negative = inhibition” value is “inactive”.
On the same count and under the same terms, in the case of `Clc1nc(Nc2ccccc2)nc(Nc2ccccc2)n1` it was “inactive”.
Same read-out and setting: the result for `CC(C(=O)Nc1ccc(O)c(C(=O)O)c1)N1C(=O)/C(=C/c2cccs2)SC1=S` (stereo unspecified) reads “inactive”; that for `Cc1ccc(C(=O)NCC(=O)OCCOc2ccccc2Cl)cc1`, “inactive”; that for `COc1ccccc1C(=O)CSc1nccn1C`, “inactive”.
The same measure, in the same setting: in the case of `O=C(CSC1=NC2(CCCCC2)N=C1c1ccccc1)Nc1ccc2c(c1)OCCO2` it was “inactive”; in that of `CS(=O)(=O)C1=NN2C(=N)/C(=C\c3ccc(OC(=O)c4ccco4)cc3)C(=O)N=C2S1`, “inactive”.
Turning to `COc1ccccc1-n1cnnc1SCC(=O)NC1CCCC1`, the “activity change, negative = inhibition” value is “inactive”.
On to `Cc1ccc(C2=NC(C)(C)N=C2SCC(=O)Nc2ccc(Cl)cc2)cc1`, for which the “activity change, negative = inhibition” value was “inactive”.
On the same count and under the same terms, the result for `O=C1CN(C(=O)/C=C/c2ccc(Cl)cc2)c2ccccc2N1` reads “inactive”; that for `COc1ccc(-c2nc(-c3cccs3)no2)cc1`, “inactive”; that for `O=C(Nc1cccc(-c2nc3cccnc3s2)c1)c1cccnc1Cl`, “inactive”.
On the same count and under the same terms, the result for `CC1CCCCC1N(C)C1CCN(C(=O)CNC(=O)/C=C/c2cccc(Cl)c2)CC1` (stereo unspecified) reads “inactive”; that for `C[C@H](NC(=O)c1ccco1)C(=O)Nc1ccc(S(=O)(=O)N2CCCC2)cc1`, “inactive”; that for `CC(=O)Nc1nnc(CCS(=O)(=O)c2ccc(C)c(C)c2)s1`, “inactive”.

For orientation: AC50 means the midpoint of the concentration-response curve, whichever way the signal moves.
